pEC50: −log10 of the molar value.

In the experiment the target is T1, MerTK (Homo sapiens, UniProt Q12866).
T1 construct: Seed HUVECs (10K cells/well) in EBM-2 complete media; host or cells: HUVEC (primary human umbilical vein endothelial cells)
T1 sequence (Q12866 21-999): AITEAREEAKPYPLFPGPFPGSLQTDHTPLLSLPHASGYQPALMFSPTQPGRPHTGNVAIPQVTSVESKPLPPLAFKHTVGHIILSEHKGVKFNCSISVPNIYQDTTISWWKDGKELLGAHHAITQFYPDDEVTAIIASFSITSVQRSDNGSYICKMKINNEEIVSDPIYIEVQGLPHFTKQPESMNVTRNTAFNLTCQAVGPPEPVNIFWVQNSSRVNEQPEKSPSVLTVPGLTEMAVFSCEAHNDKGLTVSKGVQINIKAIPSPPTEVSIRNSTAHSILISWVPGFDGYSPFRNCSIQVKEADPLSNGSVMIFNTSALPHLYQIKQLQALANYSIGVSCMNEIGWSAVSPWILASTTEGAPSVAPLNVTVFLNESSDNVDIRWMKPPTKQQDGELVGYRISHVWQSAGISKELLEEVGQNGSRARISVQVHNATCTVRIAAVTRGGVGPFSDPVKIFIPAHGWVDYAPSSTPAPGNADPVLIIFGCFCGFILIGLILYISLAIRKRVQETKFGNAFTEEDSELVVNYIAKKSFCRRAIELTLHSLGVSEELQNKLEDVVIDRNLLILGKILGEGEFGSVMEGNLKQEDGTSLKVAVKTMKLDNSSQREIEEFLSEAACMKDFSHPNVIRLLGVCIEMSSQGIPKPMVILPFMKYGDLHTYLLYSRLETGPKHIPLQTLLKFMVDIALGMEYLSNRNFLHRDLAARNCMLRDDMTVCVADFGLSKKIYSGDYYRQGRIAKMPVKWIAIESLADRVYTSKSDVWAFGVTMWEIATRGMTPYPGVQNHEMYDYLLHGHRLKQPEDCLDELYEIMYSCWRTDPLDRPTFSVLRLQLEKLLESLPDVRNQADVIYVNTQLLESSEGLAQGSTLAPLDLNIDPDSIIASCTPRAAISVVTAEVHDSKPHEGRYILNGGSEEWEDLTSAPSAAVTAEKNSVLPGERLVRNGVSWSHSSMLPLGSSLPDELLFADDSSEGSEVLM
The experiment in a line: PAKT HTRF-HUVEC assay (pAkt Ser473 HTRF after anti-human MerTK-XL stimulation). The class given is cell-based. The note with it: HUVEC cells, 1 hour compound, stimulated with anti-human MerTK-XL 1 ug/mL for 10 minutes, read-out: inhibition of MerTK. The procedure, abridged: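 HUVECs starved 3-4 h in basal medium, preincubated with compound 1 h at 37° C, then stimulated 10 min with cross-linked anti-human MerTK antibody (final 1 ug/mL). Lysates read for pAkt (Ser473) by HTRF; EC50 from curve fitting.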
In the case of `O=c1c2cc(N3CCC(N4CCCC4)CC3)ccc2c2cnc(NCC3CC3)nc2n1[C@H]1CC[C@H](O)CC1` [Compound 99, trans-3-((Cyclopropylmethyl)amino)-5-(4-hydroxycyclohexyl)-8-(4-(pyrrolidin-1-yl)piperidin-1-yl)pyrimido[4,5-c]isoquinolin-6(5H)-one], the pEC50 was 7.02.

Turning to `O=c1c2cc(N3CCn4ncnc4C3)ccc2c2cnc(NCC3CC3)nc2n1[C@H]1CC[C@H](O)CC1` [Compound 101, trans-3-((Cyclopropylmethyl)amino)-8-(5,6-dihydro-[1,2,4]triazolo[1,5-a]pyrazin-7(8H)-yl)-5-(4-hydroxycyclohexyl)pyrimido [4,5-c]isoquinolin-6(5H)-one], the pEC50 is 6.53.

For `O=c1c2cc(N3CCN4CCC[C@H]4C3)ccc2c2cnc(NCC3CC3)nc2n1[C@H]1CC[C@H](O)CC1` [Compound 102, trans-3-((Cyclopropylmethyl)amino)-8-((S)-hexahydropyrrolo[1,2-a]pyrazin-2(1H)-yl)-5-(4-hydroxycyclohexyl)pyrimido [4,5-c]isoquinolin-6(5H)-one], the pEC50 is 6.91.

Turning to `O=c1c2cc(N3CCN4CCC[C@@H]4C3)ccc2c2cnc(NCC3CC3)nc2n1[C@H]1CC[C@H](O)CC1` [Compound 103, trans-3-((Cyclopropylmethyl)amino)-8-((R)-hexahydropyrrolo[1,2-a]pyrazin-2(1H)-yl)-5-(4-hydroxycyclohexyl)pyrimido [4,5-c]isoquinolin-6(5H)-one], the pEC50 is 6.89.

Consider `O=c1c2cc(N3CCN(CC(F)(F)F)CC3)ccc2c2cnc(NCC3CC3)nc2n1[C@H]1CC[C@H](O)CC1` [Compound 104, trans-3-((Cyclopropylmethyl)amino)-5-(4-hydroxycyclohexyl)-8-(4-(2,2,2-trifluoroethyl)piperazin-1-yl)pyrimido[4,5-c]isoquinolin-6(5H)-one], for which the pEC50 was 6.54.

As to `O=c1c2cc(N3CCN(CC(F)F)CC3)ccc2c2cnc(NCC3CC3)nc2n1[C@H]1CC[C@H](O)CC1` [Compound 105, trans-3-((Cyclopropylmethyl)amino)-8-(4-(2,2-difluoroethyl)piperazin-1-yl)-5-(4-hydroxycyclohexyl)pyrimido [4,5-c]isoquinolin-6(5H)-one], the pEC50 was 6.45.

As for `C[C@@H]1CN(c2ccc3c(c2)c(=O)n([C@H]2CC[C@H](O)CC2)c2nc(NCC4CC4)ncc32)CCN1C` [Compound 106, trans-3-((Cyclopropylmethyl)amino)-8-((R)-3,4-dimethylpiperazin-1-yl)-5-(4-hydroxycyclohexyl)pyrimido [4,5-c]isoquinolin-6(5H)-one], the pEC50 is 7.15.

On to `C[C@@H]1CN(c2ccc3c(c2)c(=O)n([C@H]2CC[C@H](O)CC2)c2nc(NCC4CC4)ncc32)[C@@H](C)CN1C` [Compound 107, trans-3-((Cyclopropylmethyl)amino)-5-(4-hydroxycyclohexyl)-8-((2S,5R)-2,4,5-trimethylpiperazin-1-yl)pyrimido[4,5-c]isoquinolin-6(5H)-one], for which the pEC50 was 7.24.

On to `O=c1c2cc(N3CCNCC3)ccc2c2cnc(NCC3CC3)nc2n1[C@H]1CC[C@H](O)CC1` [Compound 108, trans-3-((Cyclopropylmethyl)amino)-5-(4-hydroxycyclohexyl)-8-(piperazin-1-yl)pyrimido[4,5-c]isoquinolin-6(5H)-one], for which the pEC50 was 6.77.

With `CC(C)N1CCN(c2ccc3c(c2)c(=O)n([C@H]2CC[C@H](O)CC2)c2nc(NCC4CC4)ncc32)CC1` [Compound 109, trans-3-((Cyclopropylmethyl)amino)-5-(4-hydroxycyclohexyl)-8-(4-isopropylpiperazin-1-yl)pyrimido[4,5-c]isoquinolin-6(5H)-one], the pEC50 is 7.01.

Consider `O=c1c2cc(N3CCN(C4CC4)CC3)ccc2c2cnc(NCC3CC3)nc2n1[C@H]1CC[C@H](O)CC1` [Compound 110, trans-3-((Cyclopropylmethyl)amino)-8-(4-cyclopropylpiperazin-1-yl)-5-(4-hydroxycyclohexyl)pyrimido [4,5-c]isoquinolin-6(5H)-one], for which the pEC50 was 6.32.

`O=c1c2cc(N3CCN(C4COC4)CC3)ccc2c2cnc(NCC3CC3)nc2n1[C@H]1CC[C@H](O)CC1` [Compound 111, trans-3-((Cyclopropylmethyl)amino)-5-(4-hydroxycyclohexyl)-8-(4-(oxetan-3-yl)piperazin-1-yl)pyrimido[4,5-c]isoquinolin-6(5H)-one]: the pEC50 is 6.42.

Take `CCCCNc1ncc2c3ccccc3c(=O)n(C3CC4(CC(O)C4)C3)c2n1` (centres unmarked) [Compound 112, 3-(Butylamino)-5-(6-hydroxyspiro[3,3]heptan-2-yl)pyrimido[4,5-c]isoquinolin-6(5H)-one]: the pEC50 was 6.33.

On to `CCCCNc1ncc2c3ccccc3c(=O)n(C3CCC(C)(O)CC3)c2n1` (stereo not drawn) [Compound 113, trans-3-(Butylamino)-5-(4-hydroxy-4-methylcyclohexyl)pyrimido [4,5-c]isoquinolin-6(5H)-one], for which the pEC50 is 7.35.

Consider `O=c1c2ccccc2c2cnc(NCC3CC3)nc2n1[C@H]1CC[C@H](O)CC1` [Compound 114, trans-3-((Cyclopropylmethyl)amino)-5-(4-hydroxycyclohexyl)pyrimido [4,5-c]isoquinolin-6(5H)-one], for which the pEC50 is 6.13.

Turning to `CCCCNc1ncc2c3ccccc3c(=O)n([C@H]3CC[C@@](C)(O)CC3)c2n1` [Compound 115, cis-3-(Butylamino)-5-(4-hydroxy-4-methylcyclohexyl)pyrimido [4,5-c]isoquinolin-6(5H)-one], the pEC50 is 6.26.

In the case of `CCC1(CNc2ncc3c4ccccc4c(=O)n([C@H]4CC[C@H](O)CC4)c3n2)CCC1` [Compound 116, trans-3-(((1-Ethylcyclobutyl)methyl)amino)-5-(4-hydroxycyclohexyl)pyrimido [4,5-c]isoquinolin-6(5H)-one], the pEC50 is 5.34.

Consider `O=c1c2ccccc2c2cnc(NCC3CCC3)nc2n1[C@H]1CC[C@H](O)CC1` [Compound 117, trans-3-((Cyclobutylmethyl)amino)-5-(4-hydroxycyclohexyl)pyrimido [4,5-c]isoquinolin-6(5H)-one], for which the pEC50 was 6.49.

For `CCC(F)(F)CNc1ncc2c3ccccc3c(=O)n([C@H]3CC[C@H](O)CC3)c2n1` [Compound 119, trans-3-((2,2-difluorobutyl)amino)-5-(4-hydroxycyclohexyl)pyrimido [4,5-c]isoquinolin-6(5H)-one], the pEC50 is 4.80.

Take `O=c1c2ccccc2c2cnc(NCCC3CC3)nc2n1[C@H]1CC[C@H](O)CC1` [Compound 120, trans-3-((2-Cyclopropylethyl)amino)-5-(4-hydroxycyclohexyl)pyrimido [4,5-c]isoquinolin-6(5H)-one]: the pEC50 was 6.45.

In the case of `CC1(O)CCC(n2c(=O)c3ccccc3c3cnc(NCC4CC4)nc32)CC1` (stereo not drawn) [Compound 121, trans-3-((Cyclopropylmethyl)amino)-5-(4-hydroxy-4-methylcyclohexyl)pyrimido[4,5-c]isoquinolin-6(5H)-one], the pEC50 was 6.21.

`C[C@]1(O)CC[C@H](n2c(=O)c3ccccc3c3cnc(NCCC4CC4)nc32)CC1` [Compound 122, trans-3-((2-Cyclopropylethyl)amino)-5-(4-hydroxy-4-methylcyclohexyl)pyrimido [4,5-c]isoquinolin-6(5H)-one]: the pEC50 was 6.78.

With `C[C@]1(O)CC[C@H](n2c(=O)c3ccccc3c3cnc(NCC4CCC4)nc32)CC1` [Compound 123, trans-3-((Cyclobutylmethyl)amino)-5-(4-hydroxy-4-methylcyclohexyl)pyrimido [4,5-c]isoquinolin-6(5H)-one], the pEC50 was 7.12.

As to `O=c1c2cc(CN3CCN(c4ccncc4)CC3)ccc2c2cnc(NCC3CC3)nc2n1[C@H]1CC[C@H](O)CC1` [Compound 124, trans-3-((Cyclopropylmethyl)amino)-5-(4-hydroxycyclohexyl)-8-((4-(pyridin-4-yl)piperazin-1-yl)methyl)pyrimido[4,5-c]isoquinolin-6(5H)-one], the pEC50 is 7.44.

As for `CCCCNc1ncc2c3ccc(CN4CCN(C)CC4)cc3c(=O)n([C@H]3CCC[C@H](O)CCC3)c2n1` [Compound 127, 3-(Butylamino)-5-((1r,5r)-5-hydroxycyclooctyl)-8-((4-methylpiperazin-1-yl)methyl)pyrimido[4,5-c]isoquinolin-6(5H)-one], the pEC50 is 7.05.

Consider `CCCCNc1ncc2c3ccc(CN4CCN(C)CC4)cc3c(=O)n([C@H]3CC[C@H](C#N)CC3)c2n1` [Compound 128], for which the pEC50 was 6.90.

The record behind these values is patent US11110082B2, “Tyrosine kinase inhibitors” (Rigel Pharmaceuticals, Inc., priority 2016, dated 2021).
